molecular target: T1, hURAT1 Transporter (Homo sapiens, UniProt Q96S37); assay: Uric Acid Uptake Assay; assay type: cell-based; conditions: HEK293/urat1 cells; C14 Uric Acid 40 μM; 10 minutes at room temperature
T1 construct: Full-length human URAT1 gene (SLC22A12) was subcloned from plasmid pCMV6-XL5
T1 sequence (Q96S37 1-553): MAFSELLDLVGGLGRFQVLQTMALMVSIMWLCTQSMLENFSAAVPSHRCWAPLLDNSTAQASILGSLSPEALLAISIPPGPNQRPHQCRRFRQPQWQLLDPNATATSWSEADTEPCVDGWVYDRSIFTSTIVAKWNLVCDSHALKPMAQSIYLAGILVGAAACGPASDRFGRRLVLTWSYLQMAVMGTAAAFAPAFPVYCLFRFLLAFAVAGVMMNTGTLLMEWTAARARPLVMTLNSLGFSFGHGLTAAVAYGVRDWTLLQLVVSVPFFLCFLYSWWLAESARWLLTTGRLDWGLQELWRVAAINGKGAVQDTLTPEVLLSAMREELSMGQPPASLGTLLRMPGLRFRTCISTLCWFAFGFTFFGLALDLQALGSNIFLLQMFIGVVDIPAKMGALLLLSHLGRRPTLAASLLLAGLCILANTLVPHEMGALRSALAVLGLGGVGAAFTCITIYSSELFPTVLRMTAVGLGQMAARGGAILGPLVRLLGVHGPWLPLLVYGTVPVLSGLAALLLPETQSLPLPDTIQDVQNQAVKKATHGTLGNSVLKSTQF
Source text: Creation of Stable Cell Lines Expressing hURAT1 Transporter: Full-length human URAT1 gene (SLC22A12) was subcloned from plasmid pCMV6-XL5 (Origene) into eukaryotic expression plasmid pCMV6/Neo (Origene) using Not I restriction sites. Gene sequencing confirmed the sequence of hURAT1 as outlined in Genbank (Accession #NM_144585.2). HEK293 human embryonic kidney cells (ATCC#CRL-1573) were propagated in EMEM tissue culture medium as described by ATCC in an atmosphere of 5% CO2 and 95% air. Transfections of HEK293 cells with the pCMV6/Neo/URAT1 construct were performed using L2000 transfection reagent (Invitrogen) as described by the manufacturer. After 24 h the transfected cells were split into 10 cm tissue culture plates and grown for 1 day after which the medium was replaced with fresh growth medium containing G418 (Gibco) at 0.5 mg/ml final concentration. Drug-resistant colonies were selected after approximately 8 days and then tested for ^14C-uric acid transport activity. The HEK293/urat1 cells are plated on Poly-D-Lysine Coated 96-well Plates at a density of 75,000 cells per well.
Cells were grown overnight (20-26 hours) at 37° C. in an incubator. Plates were allowed to come to room temperature and media was washed out with one wash of […] of Wash Buffer (125 mM Na Gluconate, 10 mM Hepes ph 7.3). Compound or vehicle is added in assay buffer with C14 Uric Acid for a final concentration of 40 μM Uric Acid with a specific activity of 54 mCi/mmol. Assay Buffer is 125 mM Sodium Gluconate, 4.8 mM Potassium Gluconate, 1.2 mM Potassium phosphate, monobasic, 1.2 mM magnesium sulfate, 1.3 mM Ca Gluconate, 5.6 mM Glucose, 25 mM HEPES, pH 7.3. Plates were incubated at room temperature for 10 minutes then washed 3 times with 50 μl Wash Buffer and 3 times with 250 μl Wash Buffer. Microscint 20 Scintillation Fluid was added and plates were incubated overnight at 45° C. to equilibrate. Plates are then read on the TopCount Plate Reader and an EC50 value generated. (See Enomoto et al, Nature, 2002, 417, 447-451 and Anzai et al, J. Biol. Chem., 2004, 279, 45942-45950.).
Compounds prepared as described herein, were examined according to the procedure described above and EC50 values generated. […] (N/A means data not available).

EC50 [µM]	Compound
> 30	Cc1nnc(SCC(=O)O)n1Cc1ccccc1
> 30	Cc1nnc(SCC(=O)O)n1-c1ccc2c(c1)OCCO2
> 30	CCOC(=O)CSc1nncn1-c1ccc(C)c2c1CCCN2
1 to 30	CCOC(=O)CSc1nncn1-c1c(C)cc(C)c2c1CCCC2
1 to 30	CCOC(=O)CSc1nncn1-c1ccc(C)c2c1CCCC2
> 30	Cc1cc(C)c(-n2cnnc2SCC(=O)O)c2c1CCCC2
> 30	Cc1ccc(-n2cnnc2SCC(=O)O)c2c1CCCC2
> 30	Cc1ccc(-n2cnnc2SCC(=O)O)c2c1NCCC2
> 30	Cc1nnc(SCC(=O)O)n1-c1ccc(N(C)C)c2ccccc12
> 30	Cc1nnc(SCC(=O)O)n1-c1cccc2cccnc12
> 30	Cc1ccc(-n2c(C)nnc2SCC(=O)O)cc1C
> 30	Cc1nnc(SCC(=O)O)n1-c1ccccc1Cl
> 30	Cc1nnc(SCC(=O)O)n1-c1ccc(Oc2ccccc2)cc1
> 30	Cc1nnc(SCC(=O)O)n1-c1ccc(C(F)(F)F)cc1
> 30	Cc1ccc(-n2c(C)nnc2SCC(=O)O)c(C)c1
> 30	COc1ccccc1-n1c(C)nnc1SCC(=O)O
> 30	Cc1cccc(C)c1-n1c(C)nnc1SCC(=O)O
> 30	Cc1nnc(SCC(=O)O)n1-c1cc(Cl)ccc1Cl
> 30	Cc1nnc(SCC(=O)O)n1-c1ccc(C(=O)O)cc1
> 30	Cc1nnc(SCC(=O)O)n1-c1cccc(Cl)c1
> 30	Cc1nnc(SCC(=O)O)n1-c1ccccc1F
> 30	Cc1nnc(SCC(=O)O)n1-c1ccccc1C(F)(F)F
1 to 30	CCOC(=O)CCCSc1nnc(N)n1-c1ccc(C2CC2)c2ccccc12
1 to 30	Nc1nnc(SCCCC(=O)O)n1-c1ccc(C2CC2)c2ccccc12
> 30	CCOC(=O)CSc1nnc(N)n1-c1ccc(C2CC2)c2ccccc12

EC50 [µM]	Compound
1 to 30	Nc1nnc(SCC(=O)O)n1-c1ccc(C2CC2)c2ccccc12
1 to 30	CCOC(=O)C(C)Sc1nnc(N)n1-c1ccc(C2CC2)c2ccccc12 (stereo not drawn)
1 to 30	CC(Sc1nnc(N)n1-c1ccc(C2CC2)c2ccccc12)C(=O)O (stereo not drawn)
> 30	CCCSc1nnc(N)n1-c1ccc(C2CC2)c2ccccc12
1 to 30	CCc1ccc(-n2c(CF)nnc2SCC(=O)O)c2ccccc12
1 to 30	Cc1ccc(-n2c(SCC(=O)O)nnc2C(F)F)c2ccccc12
1 to 30	Cc1ccc(-n2c(SCC(N)=O)nnc2C(F)F)c2c1CCCC2
> 30	CC(C)(C)c1ccc(-n2c(SCC(=O)O)nnc2C(F)F)c(Cl)c1
1 to 30	O=C(O)CSc1nnc(C(F)F)n1-c1ccc(C2CC2)c2ccccc12
> 30	COc1ccc(Cl)c(-n2c(SCC(=O)O)nnc2C(F)F)c1
> 30	CCOC(=O)CSc1nnc(C(F)F)n1-c1ccc(OC)c2c1CCCC2
1 to 30	COc1ccc(-n2c(SCC(=O)O)nnc2C(F)F)c2c1CCCC2
> 30	CCOC(=O)CSc1nnc(C(F)F)n1-c1ccc(C)c2c1CCCN2
> 30	CCOC(=O)CSc1nnc(C(F)F)n1-c1c(C)cc(C)c2ccccc12
1 to 30	Cc1cc(C)c2ccccc2c1-n1c(SCC(=O)O)nnc1C(F)F
> 30	Cc1ccc(-n2c(SCC(=O)O)nnc2C(F)F)c2c1NCCC2
1 to 30	O=C(O)CSc1nnc(C(F)(F)F)n1-c1cccc2ccccc12
> 30	CCOC(=O)CSc1nnc(C(F)(F)F)n1-c1ccc(OC)c2c1CCCC2
1 to 30	CCOC(=O)CSc1nnc(C(F)(F)F)n1-c1ccc(C)c2c1CCCC2
0.001 to 1	Cc1ccc(-n2c(SCC(=O)O)nnc2C(F)(F)F)c2c1CCCC2
1 to 30	COc1ccc(-n2c(SCC(=O)O)nnc2C(F)(F)F)c2c1CCCC2
1 to 30	Cc1ccc(-n2c(Br)nnc2SCC(=O)O)c2ccccc12
1 to 30	O=C(O)CSc1nnc(Br)n1-c1cccc2ccccc12
0.001 to 1	CCc1ccc(-n2c(Br)nnc2SCC(=O)OC)c2ccccc12
0.001 to 1	CCc1ccc(-n2c(Br)nnc2SCC(=O)O)c2ccccc12

EC50 [µM]	Compound
1 to 30	CCOC(=O)CCCSc1nnc(Br)n1-c1ccc(C2CC2)c2ccccc12
0.001 to 1	CCOC(=O)CSc1nnc(Br)n1-c1ccc(C2CC2)c2ccccc12
0.001 to 1	O=C(O)CCCSc1nnc(Br)n1-c1ccc(C2CC2)c2ccccc12
1 to 30	COc1ccc2c(C3CC3)ccc(-n3c(Br)nnc3SCC(=O)O)c2c1
> 30	O=C(O)CSc1nnc(Br)n1-c1cccc2c(OCC3CC3)cccc12
> 30	CC(C)(C)c1ccc(-n2c(Br)nnc2SCC(=O)O)c(Cl)c1
1 to 30	COc1ccc2c(Br)ccc(-n3c(Br)nnc3SCC(=O)O)c2c1
1 to 30	CCc1ccc(-n2c(Br)nnc2SCC(=O)O)c2cc(OC)ccc12
> 30	COc1ccc(Cl)c(-n2c(Br)nnc2SCC(=O)O)c1
> 30	O=C(O)CSc1nnc(Br)n1-c1cc(C(F)(F)F)ccc1Cl
1 to 30	CCOC(=O)C(C)Sc1nnc(Br)n1-c1ccc(C2CC2)c2ccccc12 (stereo not drawn)
0.001 to 1	CC(Sc1nnc(Br)n1-c1ccc(C2CC2)c2ccccc12)C(=O)O (stereo not drawn)
1 to 30	CCCSc1nnc(Br)n1-c1ccc(C2CC2)c2ccccc12
> 30	CC(C)(C)OC(=O)CSc1nnc(Br)n1-c1ccc(C2CC2)c2ccccc12
0.001 to 1	CCOC(=O)C(C)(C)Sc1nnc(Br)n1-c1ccc(CC)c2ccccc12
1 to 30	O=C(O)CSc1nnc(-c2ccccc2)n1-c1ccc(C2CC2)c2ccccc12
1 to 30	CCOC(=O)CSc1nnc(-c2ccccc2)n1-c1ccc(C2CC2)c2ccccc12
0.001 to 1	CCc1ccc(-n2c(Br)nnc2SC(C)(C)C(=O)O)c2ccccc12 [2-(5-bromo-4-(4-ethylnaphthalen-1-yl)-4H-1,2,4-triazol-3-ylthio)-2-methylpropanoic acid]
1 to 30	Cc1cc(C)c(-n2c(SCC(=O)O)nnc2C(F)(F)F)c2c1CCCC2 [Example 1A, 2-(4-(2,4-Dimethyl-5,6,7,8-tetrahydronaphthalen-1-yl)-5-(trifluoromethyl)-4H-1,2,4-triazol-3-ylthio)acetic acid]
> 30	Cc1ccc2c(C)ccc(-n3cnnc3SCC(=O)O)c2c1 [Example 2, 2-(4-(4,7-Dimethylnaphthalen-1-yl)-4H-1,2,4-triazol-3-ylthio)acetic acid]
1 to 30	CCc1ccc(-n2c(SCC(=O)O)nnc2C(F)F)c2ccccc12 [Example 4, 2-(5-(difluoromethyl)-4-(4-ethylnaphthalen-1-yl)-4H-1,2,4-triazol-3-ylthio)acetic acid]
> 30	CC(C)(Sc1nnc(N)n1-c1ccc(C2CC2)c2ccccc12)C(=O)O [Example 5, 2-(5-amino-4-(4-cyclopropylnaphthalen-1-yl)-4H-1,2,4-triazol-3-ylthio)-2-methylpropanoic acid]
0.001 to 1	CC(C)(Sc1nnc(C(F)(F)F)n1-c1ccc(C2CC2)c2ccccc12)C(=O)O [Example 9, 2-(4-(4-Cyclopropylnaphthalen-1-yl)-5-(trifluoromethyl)-4H-1,2,4-triazol-3-ylthio)-2-methylpropanoic acid]
> 30	CC(C)(C)OC(=O)C(C)(C)Sc1nnc(Br)n1-c1ccc(C2CC2)c2ccccc12 [Example 101, tert-Butyl 2-(5-bromo-4-(4-cyclopropylnaphthalen-1-yl)-4H-1,2,4-triazol-3-ylthio)-2-methylpropanoate]
1 to 30	COC(=O)CSc1nnc(Br)n1-c1ccc(C2CC2)c2ccccc12 [Example 102, Methyl 2-(5-bromo-4-(4-cyclopropylnaphthalen-1-yl)-4H-1,2,4-triazol-3-ylthio)acetate]

From patent publication US8633232B2, “Compounds, compositions and methods of using same for modulating uric acid levels” (Ardea Biosciences, Inc., priority 2008, dated 2014)
